Consider 1 sequence from publication PMC10482825 (Scientific Reports, 2023).

Assay [1] has as its system B. subtilis. In words: Radial diffusion assay. Type of assay: cell-based, Bacillus subtilis (ATCC, 11774). The note with it: 5 µl of 500 µM per 3 mm well, 37 °C, mean ± SD. An excerpt: (§1) The microbial strains used in this study were Bacillus subtilis (ATCC, 11774), Candida albicans (TIMM, 1768), Enterococcus faecalis (ATCC, 33186), Escherichia coli (ATCC, 11775), Klebsiella pneumoniae (ATCC, 13883), Methicillin-resistant Staphylococcus aureus (ATCC, BAA-41), Pseudomonas aeruginosa (ATCC, 10145), Salmonella enterica (ATCC, 14028), Serratia marcescens (ATCC, 13880), Staphylococcus aureus (ATCC, 25923) and Vibrio parahaemolyticus (ATCC, 17802). All microbial strains were cultivated overnight at 37 °C and 200 rpm, then subcultured and incubated for 3 h under the same incubation conditions to obtain the mid-logarithmic growth phase. The cultivated cells were washed twice with 10 mM Tris–HCl containing 5 mM D-glucose at pH 7.4 and suspended in the same buffer to be used in different assays, as previously described.
(§2) The antimicrobial activity spectra of the selected cryptides were screened against all the mentioned microbial pathogens, except V. parahaemolyticus, by radial diffusion assay as previously described, with slight modifications. […] The plates were then incubated for 18 h, and the antimicrobial activities were measured in the absolute unit (AU), as previously described. […]
(§3) plate. The plates were then incubated for 12 h at 37 °C and antimicrobial activities were measured in the term of absolute unit (A.U). […]

Assay [2] concerns S. aureus. In words: Radial diffusion assay. To be noted: 5 µl of 500 µM per 3 mm well, 37 °C, mean ± SD. The assay is classed as cell-based, Staphylococcus aureus (ATCC, 25923).
Excerpt: as §1, §2, §3

Assay [3] has as its system E. coli K-1. Nature of the assay: Radial diffusion assay. The assay is classed as cell-based, Escherichia coli (ATCC, 11775). The note with it: 5 µl of 500 µM per 3 mm well, 37 °C, mean ± SD.
Excerpt: as §1, §2, §3

The subject of assay [4] is K. pneumoniae. Nature of the assay: Radial diffusion assay. Type of assay: cell-based, Klebsiella pneumoniae (ATCC, 13883). The note with it: 5 µl of 500 µM per 3 mm well, 37 °C, mean ± SD.
Excerpt: as §1, §2, §3

The test system of assay [5] is S. enterica. Nature of the assay: Radial diffusion assay. Type of assay: cell-based, Salmonella enterica (ATCC, 14028). The note with it: 5 µl of 500 µM per 3 mm well, 37 °C, mean ± SD.
Excerpt: as §1, §2, §3

Assay [6] has as its system S. marcescens. Nature of the assay: Radial diffusion assay. The assay is classed as cell-based, Serratia marcescens (ATCC, 13880). To be noted: 5 µl of 500 µM per 3 mm well, 37 °C, mean ± SD.
Excerpt: as §1, §2, §3

Assay [7] relates to S. epidermidis. Nature of the assay: Radial diffusion assay. The assay is classed as cell-based. To be noted: 5 µl of 500 µM per 3 mm well, 37 °C, mean ± SD.
Excerpt: The antimicrobial activity spectra of the selected cryptides were screened against all the mentioned microbial pathogens, except V. parahaemolyticus, by radial diffusion assay as previously described, with slight modifications. We aimed to test different categories of pathogens on the WHO global priority due to their growing resistance to the available antibiotics such as P. aeruginosa, E. coli and K. pneumoniae in the critical category and Salmonella ssp. and S. aureus in the high category. Briefly, a total of 4 × 10^6 CFU of each pathogen was inoculated in 10 mL of an underlay agarose gel [0.03% w/v tryptone soy broth (TSB) medium, 1% w/v agarose and 0.02% v/v Tween 20 in 10 mM Tris–HCl] that was then poured into a 100-mm petri dish. After agarose solidification, 3 mm-diameter wells were punched by a sterile cork borer and 5 µl of 500 µM stock solution from each cryptide was added to each well. Melittin and acidified water were used as positive and negative controls, respectively. […] The plates were then incubated for 18 h, and the antimicrobial activities were measured in the absolute unit (AU), as previously described. […]
as §3

Assay [8] has as its system C. albicans. Nature of the assay: Radial diffusion assay. To be noted: 5 µl of 500 µM per 3 mm well, 37 °C, mean ± SD. The assay is classed as cell-based, Candida albicans (TIMM, 1768).
Excerpt: as §1, §2, §3

In assay [9] the test system is V. parahaemolyticus. Nature of the assay: Micro-broth dilution MIC / MBC. Type of assay: cell-based, Vibrio parahaemolyticus (ATCC, 17802). To be noted: 37 °C.
Excerpt: as §1
As a conclusive quantitative assessment, broth microtiter assay was used to determine the MIC values of each cryptide against B. subtilis, MRSA, S. enterica, P. aeruginosa, V. parahaemolyticus and C. albicans by following the guidelines of the Clinical and Laboratory Standards Institute (CLSI)[67], with slight modifications. […] MIC was detected as the lowest concentration of each cryptide that prevents the optically detectable microbial growth at OD = 600 nm.
For orientation: Dilution methods test growth across graded concentrations, often in twofold steps.

The test system of assay [10] is MRSA mature biofilm. Nature of the assay: Antibiofilm microtiter plate assay (mature biofilm, crystal violet). Type of assay: cell-based, Methicillin-resistant Staphylococcus aureus (ATCC, BAA-41). To be noted: absorbance 600 nm, mean ± SD. The procedure:
The antibiofilm activities of the selected cryptides against S. enterica and MRSA mature biofilms were examined by microtiter plate assay as previously described, with slight modification. During the mid-logarithmic phase, S. enterica and MRSA were suspended at the density of 1.7 × 10^8 CFU/ml in MHB. Then 100 µl of each bacterial suspension was dispensed into a vinyl 96 U-shaped-well plate and incubated overnight at 37 °C. The mature biofilms were washed with 10 mM Tris–HCl containing 5 mM D-glucose at pH 7.4 and treated for 8 h with 100 µl of two-fold serially diluted cryptides, under the same incubation conditions. A sterile MHB medium was used as the positive control while an equivalent volume of acidified water was used to treat the negative controls. The treated biofilms were washed twice with the same washing buffer and stained with 0.1% crystal violet for 15 min followed by rinsing with sterile distilled water twice and then dried for 30 min at 37 °C. The stain was dissolved with 33% acetic acid and transferred to an optically clear 96-well flat bottom plate which was then measured at 600 nm.
Table S.4 Antibiofilm activities of the selected Cryptides against S. enterica and MRSA. Microbial cells were suspended at 1.7 X 10^8 CFU/ml density, during the mid-logarithmic phase in MHB. Then, 96 U-shaped -well plates were inoculated with 100 µl of microbial suspension and incubated for 48 h at 37 °C. The formed biofilms were washed with 10 mM Tris-HCl and treated with 100 µl of different concentrations of each peptide for 24 h. The treated biomasses were washed and fixed with methanol for 15 min at -20 °C before staining with 0.1 % crystal violet. The stained biofilms were dissolved in 100 µl of 33 % acetic acid and the quantities of crystal violet stains were determined by measuring absorbance at 600 nm as an indicator of the remaining biomass after treatment. Untreated cells were used as negative control [indicating 100 % biofilm integrity] while the sterile medium was used as a positive control [indicating 0 % biofilm integrity].
S. enterica MRSA S. enterica MRSA S. enterica MRSA S. enterica MRSA S. enterica MRSA

Where “and” joins values, the source holds several entries; their conditions need not be identical. Identical values can stand only once.

Consider “RHCLRSKRPPNVCPH [AD4, cationic cryptide from P. vannamei precursor DN34505 (Pl-crustin 2), chemically synthesised]”, for which the “Antimicrobial activity (inhibition zone) B. subtilis” value in assay [1] is listed as 13.8± 0.7 A.U. Further, the “Antimicrobial activity (inhibition zone) S. aureus” value in assay [2] amounted to 24.4 ± 0.9 A.U. Besides, the “Antimicrobial activity (inhibition zone) E. coli K-1” value in assay [3] was found to be 7.7 ± 1 A.U. For the same sequence, the “Antimicrobial activity (inhibition zone) K. pneumoniae” value in assay [4] worked out at 0 A.U. In assay [5], the “Antimicrobial activity (inhibition zone) S. enterica” value was 7.7 ± 1 A.U. Moreover, in [6], the “Antimicrobial activity (inhibition zone) S. marcescens” value was determined as 0 A.U. Besides, the “Antimicrobial activity (inhibition zone) S. epidermidis” value in [7] is on record as 9 ± 0 A.U. The “Antifungal activity (inhibition zone) C. albicans” value in assay [8] stood at 2.1 ± 0.5 A.U. Besides, in assay [9] (20 µl of wells without growth on agar, 18 h), the “MBC (µM) V. parahaemolyticus” value is given as greater than 50 µM. Moreover, in [9] (micro-broth dilution, 3 h peptide treatment then MHB 18 h, OD 600 nm), the “MIC (µM) V. parahaemolyticus” value is given as greater than 50 µM. Moreover, in [10], the “Biofilm eradication MRSA, 12.5 µM” value worked out at 0%; the “Biofilm eradication MRSA, 25 µM” value stood at 0.86 ± 3.1%; the “Biofilm eradication MRSA, 50 µM” value was 11.53 ±1.4%; the “Biofilm eradication MRSA, 100 µM” value was found to be 27.05 ±1.3%. Also, the “Biofilm eradication MRSA, 200 µM” value in [10] was 35.86 ± 2.5% and 35.8%.
